Laboratory results reported in article PMC10552471 (ACS Omega, 2023).
Structures can show the parent of a compound that is named as a salt.

Legend:
Format in all cases: biochemical
[1] = target: T1, Plasmodium falciparum serine hydroxymethyltransferase (PfSHMT) (Plasmodium falciparum, UniProt Q8I566)
T1 sequence (Q8I566 1-442): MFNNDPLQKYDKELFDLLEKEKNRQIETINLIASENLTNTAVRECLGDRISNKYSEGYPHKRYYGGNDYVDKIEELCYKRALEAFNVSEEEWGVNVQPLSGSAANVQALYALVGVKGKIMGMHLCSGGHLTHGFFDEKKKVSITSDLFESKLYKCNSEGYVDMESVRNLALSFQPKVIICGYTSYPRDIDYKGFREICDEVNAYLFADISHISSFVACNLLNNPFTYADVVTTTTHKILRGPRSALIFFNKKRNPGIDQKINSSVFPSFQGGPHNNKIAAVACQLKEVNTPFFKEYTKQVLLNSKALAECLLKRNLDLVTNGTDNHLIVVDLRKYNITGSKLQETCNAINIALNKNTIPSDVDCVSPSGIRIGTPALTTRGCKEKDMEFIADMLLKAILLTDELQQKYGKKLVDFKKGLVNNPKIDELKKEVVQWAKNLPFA

[2] = target: T1, Plasmodium falciparum serine hydroxymethyltransferase (PfSHMT); assay: MTHFD-coupled enzyme assay at a single concentration; conditions: read-out: % inhibition at 100 μM
[3] = target: T1, Plasmodium falciparum serine hydroxymethyltransferase (PfSHMT); assay: MTHFD-coupled enzyme assay, […], […] to […] h incubation; conditions: read-out: % inhibition at 100 μM

C[C@@H]1[C@H](O)[C@@H](C)/C=C/C=C/C=C/C=C/C=C/C=C/C=C/[C@H](O[C@@H]2O[C@H](C)[C@@H](O)[C@H](N)[C@@H]2O)C[C@@H]2O[C@](O)(C[C@@H](O)C[C@@H](O)[C@H](O)CC[C@@H](O)C[C@@H](O)CC(=O)O[C@H]1C)C[C@H](O)[C@H]2C(=O)O [amphotericin B]
IC50 [1]: 106 ± 1 µM

CC(C)[C@@]1(NC(=O)[C@@H]2C[C@@H]3c4cccc5[nH]cc(c45)C[C@H]3N(C)C2)O[C@@]2(O)[C@@H]3CCCN3C(=O)[C@H](Cc3ccccc3)N2C1=O [dihydroergocristine mesylate]
inhibition at 100 µM [2]: 20 to 50%

CO[C@H]1/C=C/O[C@@]2(C)Oc3c(C)c(O)c4c(c3C2=O)C2=NC3(CCN(CC(C)C)CC3)NC2=C(NC(=O)/C(C)=C\C=C\[C@H](C)[C@H](O)[C@@H](C)[C@@H](O)[C@@H](C)[C@H](OC(C)=O)[C@@H]1C)C4=O [rifabutin]
inhibition at 100 µM [2]: 20 to 50%

CO[C@H]1/C=C/O[C@@]2(C)Oc3c(C)c(O)c4c(O)c(c5c(nc6cc(C)ccn65)c4c3C2=O)NC(=O)/C(C)=C\C=C\[C@H](C)[C@H](O)[C@@H](C)[C@@H](O)[C@@H](C)[C@H](OC(C)=O)[C@@H]1C [rifaximin]
inhibition at 100 µM [3]: ~60%
